According to patent US20240018146A1, “COMPOSITIONS AND METHODS OF USING THE SAME FOR TREATMENT OF NEURODEGENERATIVE AND MITOCHONDRIAL DISEASE” (MITOKININ, INC., priority 2020, published 2024):
pEC50: −log10 of the molar value. Read-outs that look alike come from different tables or passages of the source.

What was measured:
Assay type in all cases: cell-based
HeLa MKYP cells [1] = experiment: Cell death measured by DAPI staining, with 1 μM FCCP/oligomycin or no toxin (no FO)
How it was run: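 Cell death was read by DAPI staining after 6–6.5 h compound exposure in HeLa MKYP cells, either with 1 μM FCCP/oligomycin or without toxin. H2O2 served as the cell-death control.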

[2] = Mitotoxicity / Mitotox safety margin (therapeutic window)
HeLa MKYP cells [3] = experiment: Human mitophagy assay (HeLa mKeima assay, FACS)
How it was run: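 Mitophagy, read by FACS as the share of cells showing the lysosomal mtKeima emission shift, followed 6 h of 1 uM FCCP/oligomycin stimulation. Before that, HeLa MKYP cells spent 16 h with compound over a concentration range.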

[4] = read-out: Mitophagy induction EC50
[5] = Homo sapiens, HeLa, read-out: Mitophagy induction EC50

SMILES | Highest safe dose (cytotoxicity; no FO; safe means DAPI+ <20%) (HeLa MKYP cells [1]; no FO) [µM] | Max % death with 1 μM FO (HeLa MKYP cells [1]) [%] | Mito-Safety Index (highest safe dose/EC50) [2] | Highest safe dose (μM) (mitotox or cytotox) [2] [µM] | pEC50 (HeLa MKYP cells [3]; [4]) | Max cell death at 25 μM compound, 1 uM FO (%) (HeLa MKYP cells [1]; 25 μM compound, 1 uM FO) | Cell death at 25 μM (no FO) (%) (HeLa MKYP cells [1]; 25 μM compound, no FO) | Mitotox safety margin (Therapeutic window) [2] | pEC50 (HeLa MKYP cells [3]; Homo sapiens, HeLa, HeLa mKeima assay, read-out: Mitophagy EC50 (HeLa mKeima assay)) | pEC50 (HeLa MKYP cells [3]; [5])
COC1CN([C@H]2COc3ccccc3[C@@H]2Nc2ncnc3[nH]c(C(F)(F)F)cc23)C1 [EP-0040697] | 8.3 | 57.6 | 15.51 | 8.3 | 6.27 |  |  |  |  | 
c1ccc2c(c1)OC[C@H](N1CCOCC1)[C@H]2Nc1ncnc2[nH]c(C3CC3)cc12 [EP-0040080] | 25.0 | 13.9 | 51.66 | 25.0 |  | 16 | 4.73 | ++ (++ = 10 < x < 20) | 6.23 | 6.32
C[C@H]1CN([C@H]2CCc3ccccc3[C@@H]2Nc2ncnc3[nH]c(C4CC4)cc23)CCO1 (single isomer, unassigned) [EP-0040511] | 25.0 | 13.1 | 53.66 | 3.5 |  |  |  |  |  | 7.15
FC(F)(F)c1cc2c(N[C@H]3c4ccccc4OC[C@H]3C3CCCOC3)ncnc2[nH]1 (mixture of isomers) [EP-0041004] | 25.0 | 71.7 | 25.46 | 25.0 |  |  |  |  |  | 6.01
C[C@H]1CN([C@@H]2COc3ccccc3[C@H]2Nc2ncnc3[nH]c(C(F)(F)F)cc23)CCO1 [EP-0040980] | 19.4 | 14.7 | 50.83 | 19.4 |  |  |  |  |  | 6.42
COC1CN([C@H]2COc3ccccc3[C@@H]2Nc2ncnc3[nH]c(C4CC4)cc23)C1 [EP-0040847] | 25.0 | 5.2 |  | 25.0 | < 4.60 |  |  |  |  | 
COC[C@@H]1CCN(C2COc3ccccc3C2Nc2ncnc3[nH]c(C4CC4)cc23)C1 (single isomer, unassigned) [EP-0041514] | 25.0 | 8.1 | 38.63 | 1.4 | 7.52 |  |  |  |  | 
Fc1ccc2c(c1)CC[C@H](N1C[C@H]3COC[C@@H]3C1)[C@H]2Nc1ncnc2[nH]c(C3CC3)cc12 [EP-0040395] | 25.0 | 8.1 | 56.09 | 11.7 |  |  |  |  |  | 6.68
c1ccc2c(c1)CC[C@H](N1C[C@@H]3COC[C@H]3C1)[C@H]2Nc1ncnc2[nH]c(C3CC3)cc12 [EP-0040768] | 25.0 | 33.1 | 57.75 | 3.0 |  |  |  |  |  | 7.30
C[C@@H]1CN([C@@H]2COc3cc(F)ccc3[C@H]2Nc2ncnc3[nH]c(C(F)(F)F)cc23)C[C@H](C)O1 [EP-0040947] | 25.0 | 16.6 | 98.61 | 2.2 |  |  |  |  |  | 7.70
Fc1ccc2c(c1)CC[C@@H](N1C[C@H]3COC[C@H]3C1)[C@@H]2Nc1ncnc2[nH]c(C(F)(F)F)cc12 (single isomer, unassigned) [EP-0040721] | 8.3 | 36.3 | 46.94 | 8.3 |  |  |  |  |  | 6.74
Fc1ccc2c(c1)OC[C@H](N1C[C@H]3COC[C@H]3C1)[C@H]2Nc1ncnc2[nH]c(C3CC3)cc12 (single isomer, unassigned) [EP-0040328] | 25.0 | 16.0 | 84.78 | 16.0 | 6.72 |  |  |  |  | 
COC1CN([C@H]2CCc3ccccc3[C@@H]2Nc2ncnc3[nH]c(C(F)(F)F)cc23)C1 [EP-0040688] | 8.3 | 82.1 | 26.96 | 8.3 |  |  |  |  |  | 6.51
FC(F)(F)c1cc2c(N[C@H]3c4ccccc4OC[C@@H]3N3C[C@H]4COC[C@H]4C3)ncnc2[nH]1 [EP-0040138] | 25.0 | 9.4 | 32.50 | 25.0 |  |  |  |  |  | 6.11
c1ccc2c(c1)CC[C@H](C1CCOCC1)[C@H]2Nc1ncnc2[nH]c(C3CC3)cc12 [EP-0040726] | 25.0 | 20.5 | 100.89 | 2.1 |  |  |  |  |  | 7.70
COC[C@@H]1CCN([C@H]2COc3ccccc3[C@@H]2Nc2ncnc3[nH]c(C(F)(F)F)cc23)C1 (single isomer, unassigned) [EP-0041071] | 25.0 | 12.6 | 47.29 | 3.3 | 7.15 |  |  |  |  | 
Fc1ccc2c(c1)CC[C@H](N1C[C@@H]3COC[C@H]3C1)[C@H]2Nc1ncnc2[nH]c(C3CC3)cc12 [EP-0040669] | 25.0 | 29.9 | 71.36 | 25.0 |  |  |  |  |  | 6.46
c1ccc2c(c1)CC[C@H](N1CCOCC1)[C@H]2Nc1ncnc2[nH]c(C3CC3)cc12 (single isomer, unassigned) [EP-0040108] | 25.0 | 19.1 | 138.83 | 18.3 |  |  |  |  |  | 6.89
C[C@@H]1CN([C@@H]2COc3ccccc3[C@H]2Nc2ncnc3[nH]c(C4CC4)cc23)C[C@H](C)O1 [EP-0040945] | 25.0 | 18.4 | 27.95 | 1.2 |  |  |  |  |  | 7.40
C[C@H]1CN([C@H]2COc3ccccc3[C@@H]2Nc2ncnc3[nH]c(C4CC4)cc23)CCO1 [EP-0040999] | 25.0 | 12.1 | 105.78 | 15.1 |  |  |  |  |  | 6.85
CO[C@H]1CCN([C@H]2COc3ccccc3[C@@H]2Nc2ncnc3[nH]c(C(F)(F)F)cc23)C1 [EP-0041172] | 25.0 | 8.4 | 121.36 | 1.1 |  |  |  |  |  | 8.00
Fc1ccc2c(c1)OC[C@H](N1C[C@H]3COC[C@@H]3C1)[C@H]2Nc1ncnc2[nH]c(C(F)(F)F)cc12 (single isomer, unassigned) [EP-0040748] | 25.0 | 25.3 | 46.81 | 9.9 | 6.68 |  |  |  |  | 
FC(F)(F)c1cc2c(NC3c4ccccc4OCC3N3C[C@H]4COC[C@@H]4C3)ncnc2[nH]1 (stereo partly drawn) [EP-0040678] | 25.0 | 9.2 | 28.90 | 25.0 |  |  |  |  |  | 6.07
C[C@@H]1CN([C@H]2CCc3ccccc3[C@@H]2Nc2ncnc3[nH]c(C4CC4)cc23)C[C@H](C)O1 (single isomer, unassigned) [EP-0040498] | 25.0 | 16.5 | 30.45 | 0.7 |  |  |  |  |  | 7.70
C[C@@H]1CN([C@H]2CCc3ccccc3[C@@H]2Nc2ncnc3[nH]c(C(F)(F)F)cc23)C[C@H](C)O1 (single isomer, unassigned) [EP-0040493] | 25.0 | 14.8 | 103.09 | 1.7 |  |  |  |  |  | 7.70
COC[C@H]1CCN([C@H]2COc3ccccc3[C@@H]2Nc2ncnc3[nH]c(C(F)(F)F)cc23)C1 (single isomer, unassigned) [EP-0041175] | 25.0 | 8.8 | 30.68 | 4.5 | 6.82 |  |  |  |  | 
C[C@@H]1CN([C@H]2COc3cc(F)ccc3[C@@H]2Nc2ncnc3[nH]c(C(F)(F)F)cc23)C[C@H](C)O1 (single isomer, unassigned) [EP-0040773] | 25.0 | 27.3 | 77.04 | 9.9 |  |  |  |  |  | 6.89
